Source: US11026940B2, “Compositions for the mobilization, homing, expansion and differentiation of stem cells and methods of using the same” (Ampio Pharmaceuticals, Inc., priority 2013, dated 2021)
Several values for one entry are separate records, joined by “and”; a condition that tells them apart may be missing. Equal entries are not always repeated.

Assays:
Type in all cases: cell-based, human
[1] = system: Aggrecan; assay: Stem cell chondrogenesis, real time PCR gene expression: Aggrecan; conditions: Day 22; for Mean ΔCp / ΔCp: Aggrecan vs Actin; for Cp Agg / Mean regulation: Aggrecan; for Mean regulation: vs saline
Method: (§1) • Stem Cells: Bone marrow derived human mesenchymal stem cells: Passage 5 Bone marrow derived human mesenchymal stem cells (HUXMA-01001, Cyagen Biosciences, Sunnyvale Calif.) • Mesenchymal Stem Cell Chondrogenic Differentiation medium (GUXMX-90041, Cyagen Biosciences, Sunnyvale Calif.) • TheraPEAK MSCGM chemically defined Stem cell medium (190632 Lonza) • 1 mM Dexamethasone acetate and mifepristone in absolute ethanol (Sigma) • Saline or 0.9% Sodium chloride for injection ZR Flush (Excelsior Medical, Neptune N.J.) • Sterile filtered 0.6 mM sodium caprylate in saline (sigma) • Sterile filtered 3 mM NAT in saline (sigma); To prepare, heat at 60° C. for 30 minutes then sonicate for 5 minutes. • Sterile filtered 10 mM DADKP in saline • 0.2 μM syringe filters • Hepes buffered saline, Trypsin/EDTA, Trypsin neutralizing solution (Lonza reagent pack) • 182 cm2 tissue culture flasks • pipettes and sterile tips • Tissue culture hood, humidified CO2 incubator, water or bead bath • 24 well tissue culture plates • Qiagen RNeasy plus spin columns (Qiagen 74134) • Qiagen RT2 qPCR primer pairs for Collagen 2A1, MMP13, TIMP1, Aggrecan, GAPDH, and Actin B • Roche Sybr green I master mix and Invitrogen Superscript VILO master mix. • Roche 480 lightcycler
(§2) The following stock drug treatment solutions were prepared in saline for injection and warmed to 37° C. in bath: • 4 μM dexamethasone • 4 μM mifepristone • 3 mM NAT • 0.6 mM caprylate • 80 μM DADKP • Mix of 3 mM NAT, 0.6 mM caprylate, 80 μM DADKP (“Ampion” mix)
(§3) Cyagen Chondrogenic Differentiation medium was prepared by manufacturer protocols but excluding dexamethasone and TGF beta 3 supplements, and warmed to 37° C. in bath.
(§4) The treatment protocol included expanding 5 HUXMA stem cells in 182 cm^2 flasks containing 40 mls TheraPEAK™ MSCGM to 80-90% confluence. Cells were trypsinized from the flasks and a 1.0×10^7 cell suspension of HUXMA stem cells was warmed in Cyagen Chondrogenic Differentiation medium. 20 μl of warmed cell suspension was spotted in the middle of each well of a 24-well tissue culture plate (200,000 cells per spot), and incubated at 37° C. and 5% CO2 for one hour.
(§5) The plates were removed from the incubator and an additional 720 μl chondrogenic medium was added to each well. 250 μl saline, or drug solutions were added to the appropriate wells in triplicate (bringing the final drug dilution to one-quarter of the stock drug treatment solution concentrations). 10 μl of TGF beta 3 solution (supplied by Cyagen) was added to each well, and the plates were returned to the incubator.
(§6) RNA isolation and analysis was conducted for all plates as follows at days 7, 14, and 22 post treatment (with the described medium exchanges). […] Qiagen RNeasy plus lysis buffer (with 2mercaptoethanol) was added to each well and gently shaken for 10 minutes. The lysed cell suspensions from each well were transferred to Qiashredder columns and spun at 14,000 rpm for 2 minutes. RNA isolation proceeded by RNeasy™ plus manufacturer's protocol. RNA was eluted from the Qiagen columns using 25 μl RNase free water.
(§7) cDNA synthesis and real time PCR was conducted as follows. First strand synthesis of cDNA from all samples was performed in 20 μl total volume using 10 μl isolated RNA. All cDNA reactions were then diluted with 30 μl nuclease free water. Real time PCR was then performed using 5 μl diluted cDNA, Roche Syber green master mix, and Qiagen RT^2 gPCR™ primer pairs in 20 μl total reaction volume. Relative gene expression was determined by delta deta Ct method.

[2] = system: Collagen 2A1; assay: Stem cell chondrogenesis, real time PCR gene expression: Collagen 2A1; conditions: for Cp Coll / Mean regulation: Collagen 2A1; for Cp Coll / Mean regulation / Mean ΔCp / ΔCp: Day 22; for Mean regulation: vs saline; for Mean ΔCp / ΔCp: Collagen 2A1 vs GAPDH; for regulation, Collagen 2A1 / Mean regulation, Collagen 2A1: fold regulation vs saline; for regulation, Collagen 2A1 / ΔCp, Collagen 2A1 / 2^-ΔΔCp vs saline, Collagen 2A1 / ΔΔCp vs saline, Collagen 2A1: single replicate well; for Mean regulation, Collagen 2A1 / Mean ΔCp, Collagen 2A1: triplicate wells; for ΔCp, Collagen 2A1: human bone marrow MSC, chondrogenic medium + TGF beta 3; for ΔCp, Collagen 2A1 / 2^-ΔΔCp vs saline, Collagen 2A1 / ΔΔCp vs saline, Collagen 2A1 / Mean ΔCp, Collagen 2A1: vs Actin
Method: as §1, §2, §3, §4, §5, §6, §7

[3] = system: TIMP1; assay: Stem cell chondrogenesis, real time PCR gene expression: TIMP1; conditions: Day 22; for Mean ΔCp: TIMP1 vs Actin
Method: as §1, §2, §3, §4, §5, §6, §7

[4] = system: SOX9; assay: Stem cell chondrogenesis, real time PCR gene expression: SOX9; conditions: Day 14
Method: The treatment protocol included expanding 5 HUXMA stem cells in 182 cm^2 flasks containing 40 […] to 80-90% confluence. Cells were trypsinized from the flasks and a 1.0×10^7 cell suspension of HUXMA stem cells was warmed in Cyagen Chondrogenic Differentiation medium. 20 μl of warmed cell suspension was spotted in the middle of each well of a 24-well tissue culture plate (200,000 cells per spot), and incubated at 37° C. and 5% CO2 for one hour. […] Medium exchanges were performed every 3-4 days by aspirating the medium from the wells and replacing with fresh chondrogenic medium, diluted stocks, and TGF beta 3, as described above. […] Medium from the wells was removed and saved for further protein analysis. Qiagen RNeasy plus lysis buffer (with 2mercaptoethanol) was added to each well and gently shaken for 10 minutes. The lysed cell suspensions from each well were transferred to Qiashredder columns and spun at 14,000 rpm for 2 minutes. RNA isolation proceeded by RNeasyTM plus manufacturer's protocol. RNA was eluted from the Qiagen columns using 25 μl RNase free water. cDNA synthesis and real time PCR was conducted as follows. First strand synthesis of cDNA from all samples was performed in 20 μl total volume using 10 μl isolated RNA. All cDNA reactions were then diluted with 30 μl nuclease free water. Real time PCR was then performed using 5 μl diluted cDNA, Roche Syber green master mix, and Qiagen RT^2 gPCRTM primer pairs in 20 μl total reaction volume.

[5] = system: MMP13; assay: Stem cell chondrogenesis, real time PCR gene expression: MMP13; conditions: for Cp Coll / Mean regulation: MMP13; for Cp Coll / Mean regulation / Mean ΔCp / ΔCp: Day 22; for Mean regulation: vs saline; for Mean ΔCp / ΔCp: MMP13 vs GAPDH
Method: as §1, §2, §3, §4, §5, §6, §7

[6] = vs Actin, single replicate well
[7] = Day 7, vs Actin, single replicate well

## CCCCCCCC(=O)[O-].[Na+] [Caprylate, sodium caprylate]
[1]; Table 12
  Mean ΔCp: 7.42
  ΔCp: 6.11 and 9.72 and 6.43
  Cp Agg: 21.64 and 25.43 and 21.95
  Mean regulation: 10.81
[1]; Table 16
  Mean ΔCp: 7.42
  ΔCp: 6.11 and 9.72 and 6.43
  Cp Agg: 21.64 and 25.43 and 21.95
  Mean regulation: 10.81
[2]; Table 12
  Cp Coll: 22.93 and 25.6 and 24.26
  Mean regulation: 101.18
  Mean ΔCp: 6.557
  ΔCp: 6.08 and 7.19 and 6.4
[2]; Table 16
  Cp Coll: 22.93 and 25.6 and 24.26
  Mean regulation: 101.18
  Mean ΔCp: 6.557
  ΔCp: 6.08 and 7.19 and 6.4
[2]; Day 7
  regulation, Collagen 2A1: 1.63 and −1.05 and −1.11
  Mean regulation, Collagen 2A1: −0.18
  ΔCp, Collagen 2A1: 6.03 and 6.81 and 6.88
  2^-ΔΔCp vs saline, Collagen 2A1: 1.6283 and 0.9482 and 0.9033
  ΔΔCp vs saline, Collagen 2A1: −0.7 and 0.077 and 0.147
  Mean ΔCp, Collagen 2A1: 6.573
[2]; Day 14
  regulation, Collagen 2A1: 7.19 and 6.95 and 4.28
  Mean regulation, Collagen 2A1: 6.14
  ΔCp, Collagen 2A1: 8.21 and 8.26 and 8.96
  2^-ΔΔCp vs saline, Collagen 2A1: 7.1934 and 6.9483 and 4.2772
  ΔΔCp vs saline, Collagen 2A1: −2.85 and −2.8 and −2.1
  Mean ΔCp, Collagen 2A1: 8.477
[3]; TIMP1, Table 12
  Cp TIMP1: 17.65 and 18.77 and 19.77
[3]; TIMP1, Table 16
  Cp TIMP1: 17.65 and 18.77 and 19.77
[3]; TIMP1, vs saline, Table 12
  Mean regulation: 1.12
[3]; Table 12
  Mean ΔCp: 3.143
[3]; Table 16
  Mean ΔCp: 3.143
[4]; fold regulation vs saline, single replicate well
  regulation, SOX9: 1.16 and 1.99 and 2.28
[4]; fold regulation vs saline, triplicate wells
  Mean regulation, SOX9: 1.81
[4]; human bone marrow MSC, chondrogenic medium + TGF beta 3, vs Actin, single replicate well
  ΔCp, SOX9: 6.97 and 6.19 and 5.99
[4]; [6]
  2^-ΔΔCp vs saline, SOX9: 1.1567 and 1.9862 and 2.2815
  ΔΔCp vs saline, SOX9: −0.21 and −0.99 and −1.19
[4]; vs Actin, triplicate wells
  Mean ΔCp, SOX9: 6.383
[5]; Day 7, fold regulation vs saline, single replicate well
  regulation, MMP13: −2.63 and 1.03 and −3.06
[5]; Day 7, fold regulation vs saline, triplicate wells
  Mean regulation, MMP13: −1.55
[5]; Day 7, human bone marrow MSC, chondrogenic medium + TGF beta 3, vs Actin, single replicate well
  ΔCp, MMP13: 6.03 and 4.59 and 6.25
[5]; [7]
  2^-ΔΔCp vs saline, MMP13: 0.3807 and 1.0329 and 0.3268
  ΔΔCp vs saline, MMP13: 1.393 and −0.05 and 1.613
[5]; Day 7, vs Actin, triplicate wells
  Mean ΔCp, MMP13: 5.623
[5]; Table 12
  Cp Coll: 20.28 and 20.31 and 20.73
  Mean regulation: 0.62
  Mean ΔCp: 2.733
  ΔCp: 3.43 and 1.9 and 2.87
[5]; Table 16
  Cp Coll: 20.28 and 20.31 and 20.73
  Mean regulation: 0.62
  Mean ΔCp: 2.733
  ΔCp: 3.43 and 1.9 and 2.87
